Reference: PubChem BioAssay (NCI)
“And” between values parts separate entries of the source, which are not always exact repeats. Equal entries are not always repeated.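 48-hour exposure; five concentrations; linearly interpolated endpoints. GI50 is the concentration that inhibits growth by half. TGI marks complete inhibition of growth.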 Where a SMILES comes first, the peptide text is derived from it. [ ]: non-standard residue; d: D form. The star is where a group is joined. NMeF = CN[CH](Cc1ccccc1)C(=O)O; NMeV = CN[CH](C(=O)O)C(C)C; Boc = CC(C)(C)OC(=O)*

System: SF-268 CNS
Test: DTP human tumour cell line panel, 48 h

Row | SMILES | TGI | GI50
1 | CCN(CC)C(=O)Cn1c(C)cc2ccccc21 | > 100 µM | –
2 | CC1(C)NC2C(=O)c3c([nH]c4ccccc34)[C@]3(C)CCC1CC23 (stereo not given in full) | > 100 µM | –
3 | COc1ccc2ccccc2c1/C=C/C(=O)c1ccccc1 | 17.9 µM | –
4 | O=c1[nH]nc(-c2ccccc2)c2[nH]c3c4ccccc4ccc3c12 | > 100 µM | –
5 | C=CCCN1CCc2c([nH]c3ccccc23)C1C(=O)O (stereo not given) | > 100 µM | –
6 | O=C1C(CN2CCCCC2)CCC1CN1CCCCC1 (stereo not given) | > 74.8 µM | –
7 | c1ccc2c(c1)ccn2CCc1c[nH]c2ccccc12 | > 10 µM | –
8 | CC(C)[Si](OC1=C(C(=O)N(C)c2cccc(Cl)c2)CCCC1)(C(C)C)C(C)C | 28.6 µM | –
9 | COc1cc(/C=C(\C#N)C(N)=O)cc(Br)c1O | > 100 µM | –
10 | COc1cc(C(=O)N(Cc2cccnc2)C(=S)N(Cc2cccnc2)C(=O)c2cc(OC)c(OC)c(OC)c2)cc(OC)c1OC | > 100 µM | –
11 | COc1cc(CNCc2cc(OC)c(OC)c(OC)c2)cc(OC)c1OC | > 10 µM | –
12 | Oc1c(CN2CCOCC2)ccc2cccnc12 | > 10 µM | –
13 | CC1NC(=O)CC(c2ccccc2)N(N=O)C1c1ccccc1 (stereo not given) | > 100 µM | –
14 | CCOCc1nc2c(OC)cc(-c3nc4ccc(N5CCN(C)CC5)cc4[nH]3)c(OC)c2[nH]1 | > 100 µM | –
15 | O=C(N/N=C\c1cccc2c([N+](=O)[O-])cccc12)Nc1ccccc1 | 73 µM | –
16 | CCCCN1C(=O)N(c2ccc(OCC)cc2)C2N(CCCC)C1C(C)(C)C2(C)C (stereo not given) | 67.7 µM | –
17 | CON(C)C(=O)CNC(=O)OCC1c2ccccc2-c2ccccc21 | > 100 µM | –
18 | O=C(NNC(=S)Nc1cccc(Cl)c1)c1cc(-c2ccccc2)nc2ccccc12 | 35.4 µM | –
19 | Cc1cn(C2CC(N(O)Cc3ccccc3)C(CO[Si](C)(C)C(C)(C)C)O2)c(=O)[nH]c1=O (stereo not given) | > 100 µM and 31 µM | 34.6 µM and 16.7 µM

Row | SMILES | TGI | GI50
20 | CC(=O)OC(/C=C/c1ccccc1)=C(OC(C)C)/C1=C(\c2ccccc2)SCCCSC1=O | > 100 µM | –
21 | Cc1ccc(-c2c(C#N)c(-c3ccc(Cl)cc3)c(C#N)c(=O)n2NS(=O)(=O)c2ccc(C)cc2)cc1 | > 100 µM | –
22 | COc1cc(Cn2c3c(c4cc(O)ccc42)Cc2ccccc2C3=O)cc(OC)c1 | > 100 µM | –
23 | Cc1cc(S(=O)(=O)N=C2N(Cc3ccccc3)CCN2Cc2ccccc2)c(S)cc1Cl | > 100 µM | –
24 | CCCN1CCC(=O)N(CCC(F)(F)C(F)(F)C(F)(F)C(F)(F)C(F)(F)C(F)(F)F)C1=S | > 100 µM | –
25 | CSc1ccc2c(cc1=O)[C@@H](NC(=O)c1ccc(N)cc1)CCc1cc(O)c(O)c(O)c1-2 | 47.8 µM and > 100 µM | –
26 | CCOC(=O)CC1(C(=O)OCC)c2[nH]c3ccccc3c2CCN1Cc1ccccc1 (stereo not given) | 37.7 µM | –
27 | CC(C)C(NC(=O)OC(C)(C)C)C(=O)N(C)C(Cc1ccccc1)C(=O)N(C)C(C(=O)O)C(C)C (stereo not drawn) (Boc-Val-[NMeF]-[NMeV]-OH; configuration not given here) | > 100 µM | –
28 | O=Cc1c(C(=O)O)[nH]c(=O)[nH]c1=O | > 100 µM | –
29 | N=C(N)c1ccc(C(NC(=O)CNS(=O)(=O)c2ccc3ccccc3c2)P(=O)(Oc2ccccc2)Oc2ccccc2)cc1 (stereo not given) | > 100 µM | –
30 | Nc1cc2[nH]c(=O)c(=O)[nH]c2cc1N | > 100 µM | –
31 | O=C1C=C(C2=CC(=O)C(=O)c3ccccc32)c2ccccc2C1=O | 48.3 µM | –
32 | C(=Nc1ccc(-c2nc3ccccc3[nH]2)cc1)c1cccs1 | > 100 µM | –
33 | C1=CC2SSSC2C1 (stereo not given) | > 100 µM | –
34 | C[N+](C)(C)CC1CCCCCCCCCCC1=O (stereo not given) | > 100 µM | –
35 | CCN(CC)CCNc1nc2ccc([N+](=O)[O-])cc2[n+]([O-])n1 | > 100 µM | –
36 | Cn1c2c(c3ccccc31)CC1c3c(c4ccccc4n3C)CC21 (stereo not given) | > 100 µM | –
37 | O=P(Nc1ccc(Cl)cc1)(Oc1ccccc1)N(CCCl)CCCl (stereo not given) | > 100 µM | –

System: MALME-3M melanoma
Test: DTP human tumour cell line panel, 48 h

Row | SMILES | TGI [µM]
38 | CCN(CC)C(=O)Cn1c(C)cc2ccccc21 | > 100
39 | CC1(C)NC2C(=O)c3c([nH]c4ccccc34)[C@]3(C)CCC1CC23 (stereo not given in full) | > 100
40 | COc1ccc2ccccc2c1/C=C/C(=O)c1ccccc1 | 26.3
41 | O=c1[nH]nc(-c2ccccc2)c2[nH]c3c4ccccc4ccc3c12 | > 100
42 | C=CCCN1CCc2c([nH]c3ccccc23)C1C(=O)O (stereo not given) | > 100
43 | O=C1C(CN2CCCCC2)CCC1CN1CCCCC1 (stereo not given) | 49
44 | c1ccc2c(c1)ccn2CCc1c[nH]c2ccccc12 | > 10
45 | CC(C)[Si](OC1=C(C(=O)N(C)c2cccc(Cl)c2)CCCC1)(C(C)C)C(C)C | 24.9
46 | COc1cc(/C=C(\C#N)C(N)=O)cc(Br)c1O | > 100
47 | COc1cc(C(=O)N(Cc2cccnc2)C(=S)N(Cc2cccnc2)C(=O)c2cc(OC)c(OC)c(OC)c2)cc(OC)c1OC | > 100
48 | COc1cc(CNCc2cc(OC)c(OC)c(OC)c2)cc(OC)c1OC | > 10
49 | Oc1c(CN2CCOCC2)ccc2cccnc12 | > 10
50 | CC1NC(=O)CC(c2ccccc2)N(N=O)C1c1ccccc1 (stereo not given) | > 100
51 | CCOCc1nc2c(OC)cc(-c3nc4ccc(N5CCN(C)CC5)cc4[nH]3)c(OC)c2[nH]1 | 33.5
52 | O=C(N/N=C\c1cccc2c([N+](=O)[O-])cccc12)Nc1ccccc1 | 38
53 | CCCCN1C(=O)N(c2ccc(OCC)cc2)C2N(CCCC)C1C(C)(C)C2(C)C (stereo not given) | 73.1
54 | CON(C)C(=O)CNC(=O)OCC1c2ccccc2-c2ccccc21 | > 100
55 | O=C(NNC(=S)Nc1cccc(Cl)c1)c1cc(-c2ccccc2)nc2ccccc12 | 29.9
56 | Cc1cn(C2CC(N(O)Cc3ccccc3)C(CO[Si](C)(C)C(C)(C)C)O2)c(=O)[nH]c1=O (stereo not given) | 31.8

Row | SMILES | TGI [µM]
57 | CC(=O)OC(/C=C/c1ccccc1)=C(OC(C)C)/C1=C(\c2ccccc2)SCCCSC1=O | > 100
58 | Cc1ccc(-c2c(C#N)c(-c3ccc(Cl)cc3)c(C#N)c(=O)n2NS(=O)(=O)c2ccc(C)cc2)cc1 | > 100
59 | COc1cc(Cn2c3c(c4cc(O)ccc42)Cc2ccccc2C3=O)cc(OC)c1 | > 100
60 | Cc1cc(S(=O)(=O)N=C2N(Cc3ccccc3)CCN2Cc2ccccc2)c(S)cc1Cl | > 100
61 | CCCN1CCC(=O)N(CCC(F)(F)C(F)(F)C(F)(F)C(F)(F)C(F)(F)C(F)(F)F)C1=S | > 100
62 | CSc1ccc2c(cc1=O)[C@@H](NC(=O)c1ccc(N)cc1)CCc1cc(O)c(O)c(O)c1-2 | > 100
63 | CCOC(=O)CC1(C(=O)OCC)c2[nH]c3ccccc3c2CCN1Cc1ccccc1 (stereo not given) | 37.3
64 | CC(C)C(NC(=O)OC(C)(C)C)C(=O)N(C)C(Cc1ccccc1)C(=O)N(C)C(C(=O)O)C(C)C (stereo not drawn) (Boc-Val-[NMeF]-[NMeV]-OH; configuration not given here) | > 100
65 | O=Cc1c(C(=O)O)[nH]c(=O)[nH]c1=O | > 100
66 | N=C(N)c1ccc(C(NC(=O)CNS(=O)(=O)c2ccc3ccccc3c2)P(=O)(Oc2ccccc2)Oc2ccccc2)cc1 (stereo not given) | > 100
67 | Nc1cc2[nH]c(=O)c(=O)[nH]c2cc1N | > 100
68 | O=C1C=C(C2=CC(=O)C(=O)c3ccccc32)c2ccccc2C1=O | > 100
69 | C(=Nc1ccc(-c2nc3ccccc3[nH]2)cc1)c1cccs1 | > 100
70 | C1=CC2SSSC2C1 (stereo not given) | > 100
71 | C[N+](C)(C)CC1CCCCCCCCCCC1=O (stereo not given) | > 100
72 | CCN(CC)CCNc1nc2ccc([N+](=O)[O-])cc2[n+]([O-])n1 | 4.28
73 | Cn1c2c(c3ccccc31)CC1c3c(c4ccccc4n3C)CC21 (stereo not given) | > 100
74 | O=P(Nc1ccc(Cl)cc1)(Oc1ccccc1)N(CCCl)CCCl (stereo not given) | > 100

System: UACC-257 melanoma
Test: DTP human tumour cell line panel, 48 h

Row | SMILES | TGI
75 | CCN(CC)C(=O)Cn1c(C)cc2ccccc21 | > 100 µM
76 | CC1(C)NC2C(=O)c3c([nH]c4ccccc34)[C@]3(C)CCC1CC23 (stereo not given in full) | > 100 µM
77 | COc1ccc2ccccc2c1/C=C/C(=O)c1ccccc1 | 16 µM
78 | O=c1[nH]nc(-c2ccccc2)c2[nH]c3c4ccccc4ccc3c12 | > 100 µM
79 | C=CCCN1CCc2c([nH]c3ccccc23)C1C(=O)O (stereo not given) | > 100 µM
80 | O=C1C(CN2CCCCC2)CCC1CN1CCCCC1 (stereo not given) | 47.1 µM
81 | c1ccc2c(c1)ccn2CCc1c[nH]c2ccccc12 | > 10 µM
82 | CC(C)[Si](OC1=C(C(=O)N(C)c2cccc(Cl)c2)CCCC1)(C(C)C)C(C)C | 27.8 µM
83 | COc1cc(/C=C(\C#N)C(N)=O)cc(Br)c1O | > 100 µM
84 | COc1cc(C(=O)N(Cc2cccnc2)C(=S)N(Cc2cccnc2)C(=O)c2cc(OC)c(OC)c(OC)c2)cc(OC)c1OC | > 100 µM
85 | COc1cc(CNCc2cc(OC)c(OC)c(OC)c2)cc(OC)c1OC | > 10 µM
86 | Oc1c(CN2CCOCC2)ccc2cccnc12 | > 10 µM
87 | CC1NC(=O)CC(c2ccccc2)N(N=O)C1c1ccccc1 (stereo not given) | > 100 µM
88 | CCOCc1nc2c(OC)cc(-c3nc4ccc(N5CCN(C)CC5)cc4[nH]3)c(OC)c2[nH]1 | 34.4 µM
89 | O=C(N/N=C\c1cccc2c([N+](=O)[O-])cccc12)Nc1ccccc1 | 44.4 µM
90 | CCCCN1C(=O)N(c2ccc(OCC)cc2)C2N(CCCC)C1C(C)(C)C2(C)C (stereo not given) | > 100 µM
91 | CON(C)C(=O)CNC(=O)OCC1c2ccccc2-c2ccccc21 | > 100 µM
92 | O=C(NNC(=S)Nc1cccc(Cl)c1)c1cc(-c2ccccc2)nc2ccccc12 | 31.5 µM
93 | Cc1cn(C2CC(N(O)Cc3ccccc3)C(CO[Si](C)(C)C(C)(C)C)O2)c(=O)[nH]c1=O (stereo not given) | 67.5 µM and 30 µM
94 | CC(=O)OC(/C=C/c1ccccc1)=C(OC(C)C)/C1=C(\c2ccccc2)SCCCSC1=O | > 100 µM
95 | Cc1ccc(-c2c(C#N)c(-c3ccc(Cl)cc3)c(C#N)c(=O)n2NS(=O)(=O)c2ccc(C)cc2)cc1 | > 100 µM
96 | COc1cc(Cn2c3c(c4cc(O)ccc42)Cc2ccccc2C3=O)cc(OC)c1 | > 100 µM
97 | Cc1cc(S(=O)(=O)N=C2N(Cc3ccccc3)CCN2Cc2ccccc2)c(S)cc1Cl | > 100 µM
98 | CCCN1CCC(=O)N(CCC(F)(F)C(F)(F)C(F)(F)C(F)(F)C(F)(F)C(F)(F)F)C1=S | > 100 µM
99 | CSc1ccc2c(cc1=O)[C@@H](NC(=O)c1ccc(N)cc1)CCc1cc(O)c(O)c(O)c1-2 | > 100 µM
100 | CCOC(=O)CC1(C(=O)OCC)c2[nH]c3ccccc3c2CCN1Cc1ccccc1 (stereo not given) | 40.5 µM
101 | CC(C)C(NC(=O)OC(C)(C)C)C(=O)N(C)C(Cc1ccccc1)C(=O)N(C)C(C(=O)O)C(C)C (stereo not drawn) (Boc-Val-[NMeF]-[NMeV]-OH; configuration not given here) | > 100 µM
102 | O=Cc1c(C(=O)O)[nH]c(=O)[nH]c1=O | > 100 µM
103 | N=C(N)c1ccc(C(NC(=O)CNS(=O)(=O)c2ccc3ccccc3c2)P(=O)(Oc2ccccc2)Oc2ccccc2)cc1 (stereo not given) | > 100 µM
104 | Nc1cc2[nH]c(=O)c(=O)[nH]c2cc1N | > 100 µM
